# Measured values as given in ChEMBL document CHEMBL3611970, “Synthesis and evaluation of isatin-β-thiosemicarbazones as novel agents against antibiotic-resistant Gram-positive bacterial species” (2015).
# Assays:
# Type in all cases: functional
# [1] = system: Staphylococcus aureus; experiment: Antimicrobial activity against methicillin-resistant Staphylococcus aureus Chaoyang clinical isolate after 16 hrs by broth microdilution method
# [2] = system: Staphylococcus aureus; experiment: Antimicrobial activity against Staphylococcus aureus ATCC 6538 after 16 hrs by broth microdilution method; details: ATCC 6538, 16 h
# [3] = system: Bacillus spizizenii; experiment: Antimicrobial activity against Bacillus subtilis ATCC 6633 after 16 hrs by broth microdilution method; details: ATCC 6633, 16 h
# [4] = system: Enterococcus faecalis; experiment: Antimicrobial activity against vancomycin-susceptible Enterococcus faecalis after 16 hrs by broth microdilution method
# [5] = system: Enterococcus faecalis; experiment: Antimicrobial activity against Enterococcus faecalis VRE-309 after 16 hrs by broth microdilution method; details: VRE-309, 16 h
# [6] = system: Pseudomonas aeruginosa; experiment: Antimicrobial activity against Pseudomonas aeruginosa PAO1 after 16 hrs by broth microdilution method; details: PAO1, 16 h
# [7] = system: Klebsiella pneumoniae; experiment: Antimicrobial activity against Klebsiella pneumoniae KP-249 clinical isolate after 16 hrs by broth microdilution method; details: KP-249, 16 h
# [8] = system: Staphylococcus aureus; experiment: Antimicrobial activity against methicillin-resistant Staphylococcus aureus 309-4 clinical isolate after 16 hrs by broth microdilution method; details: 309-4, 16 h
# [9] = system: Staphylococcus aureus; experiment: Antimicrobial activity against methicillin-resistant Staphylococcus aureus 6281 clinical isolate after 16 hrs by broth microdilution method; details: Staphylococcus aureus, 6281, 16 h
# [10] = system: Staphylococcus aureus; experiment: Antimicrobial activity against methicillin-resistant Staphylococcus aureus 309-8 clinical isolate after 16 hrs by broth microdilution method; details: 309-8, 16 h
# [11] = system: Staphylococcus aureus; experiment: Antimicrobial activity against methicillin-resistant Staphylococcus aureus 6-42 clinical isolate after 16 hrs by broth microdilution method; details: 6-42, 16 h
# [12] = system: Staphylococcus aureus; experiment: Antimicrobial activity against methicillin-resistant Staphylococcus aureus 8-21 clinical isolate after 16 hrs by broth microdilution method; details: 8-21, 16 h
# [13] = system: Staphylococcus aureus; experiment: Antimicrobial activity against methicillin-resistant Staphylococcus aureus 309-3 clinical isolate after 16 hrs by broth microdilution method; details: 309-3, 16 h
# [14] = system: Staphylococcus aureus; experiment: Antimicrobial activity against methicillin-resistant Staphylococcus aureus 309-1 clinical isolate after 16 hrs by broth microdilution method; details: 309-1, 16 h
# [15] = system: Staphylococcus aureus; experiment: Antimicrobial activity against methicillin-resistant Staphylococcus aureus 309-7 clinical isolate after 16 hrs by broth microdilution method; details: 309-7, 16 h
# [16] = system: Staphylococcus aureus; experiment: Antimicrobial activity against methicillin-resistant Staphylococcus aureus 8-24 clinical isolate after 16 hrs by broth microdilution method; details: 8-24, 16 h
# [17] = system: Staphylococcus aureus; experiment: Antimicrobial activity against methicillin-resistant Staphylococcus aureus 309-6 clinical isolate after 16 hrs by broth microdilution method; details: 309-6, 16 h
Structure (SMILES),MIC [1],MIC [2],MIC [3],MIC [4],MIC [5],MIC [6],MIC [7],MIC [8],MIC [9],MIC [10],MIC [11],MIC [12],MIC [13],MIC [14],MIC [15],MIC [16],MIC [17]
O=C1Nc2c(Br)cccc2/C1=N/NC(=S)Nc1ccc(Cl)cc1,0.39 µg/mL,1.56 µg/mL,≤ 0.78 µg/mL,3.12 µg/mL,1.56 µg/mL,> 100 µg/mL,> 100 µg/mL,0.78 µg/mL,1.56 µg/mL,0.78 µg/mL,0.78 µg/mL,0.78 µg/mL,0.78 µg/mL,0.78 µg/mL,0.39 µg/mL,1.56 µg/mL,1.56 µg/mL
Cc1ccc(NC(=S)N/N=C2\C(=O)Nc3c(C)cccc32)cc1,1.56 µg/mL,3.12 µg/mL,≤ 0.78 µg/mL,6.25 µg/mL,3.12 µg/mL,> 100 µg/mL,> 100 µg/mL,1.56 µg/mL,3.12 µg/mL,1.56 µg/mL,1.56 µg/mL,3.12 µg/mL,3.12 µg/mL,3.12 µg/mL,1.56 µg/mL,3.12 µg/mL,3.12 µg/mL
Cc1cccc2c1NC(=O)/C2=N\NC(=S)Nc1ccc(Cl)cc1,0.78 µg/mL,1.56 µg/mL,1.56 µg/mL,3.12 µg/mL,1.56 µg/mL,> 100 µg/mL,> 100 µg/mL,1.56 µg/mL,3.12 µg/mL,1.56 µg/mL,1.56 µg/mL,1.56 µg/mL,3.12 µg/mL,1.56 µg/mL,1.56 µg/mL,1.56 µg/mL,3.12 µg/mL
Cc1cccc2c1NC(=O)/C2=N\NC(=S)Nc1ccc(F)cc1,0.78 µg/mL,1.56 µg/mL,≤ 0.78 µg/mL,3.12 µg/mL,1.56 µg/mL,> 100 µg/mL,> 100 µg/mL,1.56 µg/mL,3.12 µg/mL,1.56 µg/mL,1.56 µg/mL,1.56 µg/mL,1.56 µg/mL,1.56 µg/mL,0.78 µg/mL,1.56 µg/mL,1.56 µg/mL
Cc1ccccc1NC(=S)N/N=C1\C(=O)Nc2c(F)cccc21,1.56 µg/mL,3.12 µg/mL,≤ 0.78 µg/mL,6.25 µg/mL,6.25 µg/mL,> 100 µg/mL,> 100 µg/mL,1.56 µg/mL,3.12 µg/mL,1.56 µg/mL,1.56 µg/mL,1.56 µg/mL,3.12 µg/mL,1.56 µg/mL,1.56 µg/mL,1.56 µg/mL,3.12 µg/mL
O=C1Nc2c(F)cccc2/C1=N/NC(=S)Nc1ccc(F)cc1,0.78 µg/mL,1.56 µg/mL,1.56 µg/mL,3.12 µg/mL,3.12 µg/mL,> 100 µg/mL,> 100 µg/mL,1.56 µg/mL,3.12 µg/mL,1.56 µg/mL,1.56 µg/mL,1.56 µg/mL,1.56 µg/mL,1.56 µg/mL,1.56 µg/mL,1.56 µg/mL,3.12 µg/mL
Cc1cccc(NC(=S)N/N=C2\C(=O)Nc3c(F)cccc32)c1,0.39 µg/mL,1.56 µg/mL,≤ 0.78 µg/mL,3.12 µg/mL,3.12 µg/mL,> 100 µg/mL,> 100 µg/mL,0.78 µg/mL,1.56 µg/mL,0.78 µg/mL,0.78 µg/mL,0.78 µg/mL,0.78 µg/mL,0.78 µg/mL,0.78 µg/mL,1.56 µg/mL,1.56 µg/mL
